Consider one compound from US20030073218A1, “High affinity inhibitors for target validation and uses thereof” (Princeton University, priority 1999, published 2003).

Molecules are shown by their SMILES. pIC50: −log10 of the molar value.

As a reminder, the pIC50 is −log10 of the IC50, conventionally taken in molar units.

One assay deals with protein kinase A (Homo sapiens, UniProt P17612). The following applies: reported (89, 90); cited from earlier work.
Assay [1] deals with Trk family tyrosin kinases. Conditions: reported (89, 90); cited from earlier work.
The subject of assay [2] is panel of wild-type protein kinases (v-src, Fyn, c-Abl, CAMK IIα, CDK2). Put plainly: In vitro inhibition, panel of wild-type protein kinases. It is filed as biochemical.
For assay [3], the target named is cGMP dependent protein kinase. The following applies: reported (89, 90); cited from earlier work.
A further assay deals with T1, wild-type c-Abl (Homo sapiens, UniProt P00519).
T1 construct: GST; made in house
T1 sequence (P00519 whole entry): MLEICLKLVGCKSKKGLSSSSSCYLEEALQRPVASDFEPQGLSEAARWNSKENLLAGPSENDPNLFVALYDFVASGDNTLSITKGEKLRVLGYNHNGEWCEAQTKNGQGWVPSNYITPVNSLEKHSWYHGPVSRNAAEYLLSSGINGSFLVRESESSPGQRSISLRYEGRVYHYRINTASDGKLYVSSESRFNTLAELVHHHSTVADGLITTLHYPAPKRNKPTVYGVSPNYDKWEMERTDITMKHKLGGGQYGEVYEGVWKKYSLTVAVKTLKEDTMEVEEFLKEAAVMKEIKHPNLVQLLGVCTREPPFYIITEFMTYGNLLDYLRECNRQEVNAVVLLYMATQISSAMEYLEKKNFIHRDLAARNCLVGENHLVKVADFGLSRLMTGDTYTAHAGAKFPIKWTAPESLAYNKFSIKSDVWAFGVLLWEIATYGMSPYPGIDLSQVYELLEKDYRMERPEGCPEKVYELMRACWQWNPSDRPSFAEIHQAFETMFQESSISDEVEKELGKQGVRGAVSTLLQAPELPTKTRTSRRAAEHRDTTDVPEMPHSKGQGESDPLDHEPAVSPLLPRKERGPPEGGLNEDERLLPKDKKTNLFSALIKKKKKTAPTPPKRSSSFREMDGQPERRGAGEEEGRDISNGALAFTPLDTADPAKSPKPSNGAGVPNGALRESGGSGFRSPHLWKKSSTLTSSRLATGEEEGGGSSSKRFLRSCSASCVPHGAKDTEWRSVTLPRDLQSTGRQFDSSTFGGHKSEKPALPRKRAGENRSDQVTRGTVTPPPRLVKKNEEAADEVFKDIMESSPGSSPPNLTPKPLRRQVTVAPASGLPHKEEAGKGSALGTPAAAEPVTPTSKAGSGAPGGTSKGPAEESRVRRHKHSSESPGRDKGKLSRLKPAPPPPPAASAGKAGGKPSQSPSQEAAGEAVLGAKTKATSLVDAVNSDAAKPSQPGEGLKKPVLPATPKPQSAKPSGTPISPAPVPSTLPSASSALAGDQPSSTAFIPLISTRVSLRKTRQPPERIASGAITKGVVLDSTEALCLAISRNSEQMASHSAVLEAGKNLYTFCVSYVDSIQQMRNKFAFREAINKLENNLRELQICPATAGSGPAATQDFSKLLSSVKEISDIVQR
Put plainly: In vitro inhibition by K252a. The assay is classed as biochemical.

Turning to `COC(=O)[C@@]1(O)C[C@H]2O[C@]1(C)n1c3ccccc3c3c4c(c5c6ccccc6n2c5c31)C(=O)NC4` [Compound K252a, (+)-K252a], the pIC50 (on protein kinase A; in assay [1]; in assay [3]) was no less than 7.52 throughout. Besides, in assay [2], the “inhibition of wild-type protein kinases (in words)” value is “can efficiently inhibit Src family kinases, cyclin dependent kinases, and calmodulin dependent kinases”. Also, the “inhibition of wild-type Abl” value at wild-type c-Abl was “not effectively inhibited”.
